Results: PubChem BioAssay (NCI)
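Following 48 hours of exposure in 96-well plates, responses at five concentrations were used to interpolate endpoints linearly. At the GI50, growth is halved. At the TGI there is no net growth.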

Columns and labels:
Experiment in all cases: DTP human tumour cell line panel, 48 h
HCT-116 colon = tested on: HCT-116 colon
BT-549 breast = tested on: BT-549 breast
HOP-92 NSCLC = tested on: HOP-92 NSCLC
CCRF-CEM leukemia = tested on: CCRF-CEM leukemia
RXF 393 renal = tested on: RXF 393 renal
OVCAR-4 ovarian = tested on: OVCAR-4 ovarian
HL-60(TB) leukemia = tested on: HL-60(TB) leukemia
SF-295 CNS = tested on: SF-295 CNS
TK-10 renal = tested on: TK-10 renal
LOX IMVI melanoma = tested on: LOX IMVI melanoma
MCF7 breast = tested on: MCF7 breast
SK-MEL-28 melanoma = tested on: SK-MEL-28 melanoma
CAKI-1 renal = tested on: CAKI-1 renal
SK-OV-3 ovarian = tested on: SK-OV-3 ovarian
U251 CNS = tested on: U251 CNS
NCI-H23 lung = tested on: NCI-H23 lung
HCC-2998 colon = tested on: HCC-2998 colon
SK-MEL-2 melanoma = tested on: SK-MEL-2 melanoma
SW-620 colon = tested on: SW-620 colon
786-0 renal = tested on: 786-0 renal
SK-MEL-5 melanoma = tested on: SK-MEL-5 melanoma
HT29 colon = tested on: HT29 colon
M14 melanoma = tested on: M14 melanoma
OVCAR-5 ovarian = tested on: OVCAR-5 ovarian
SF-539 CNS = tested on: SF-539 CNS
MDA-MB-435 = tested on: MDA-MB-435
NCI-H522 lung = tested on: NCI-H522 lung
COLO 205 colon = tested on: COLO 205 colon
OVCAR-8 ovarian = tested on: OVCAR-8 ovarian
SNB-75 CNS = tested on: SNB-75 CNS
MOLT-4 leukemia = tested on: MOLT-4 leukemia
RPMI-8226 leukemia = tested on: RPMI-8226 leukemia
KM12 colon = tested on: KM12 colon
UO-31 renal = tested on: UO-31 renal
HS 578T breast = tested on: HS 578T breast
K-562 leukemia = tested on: K-562 leukemia
A549 NSCLC = tested on: A549 NSCLC
SNB-19 CNS = tested on: SNB-19 CNS
MALME-3M melanoma = tested on: MALME-3M melanoma
SR leukemia = tested on: SR leukemia
NCI-H460 lung = tested on: NCI-H460 lung
OVCAR-3 ovarian = tested on: OVCAR-3 ovarian
SF-268 CNS = tested on: SF-268 CNS
UACC-62 melanoma = tested on: UACC-62 melanoma
PC-3 prostate = tested on: PC-3 prostate
A498 renal = tested on: A498 renal
MDA-MB-231 breast = tested on: MDA-MB-231 breast
IGROV1 ovarian = tested on: IGROV1 ovarian
UACC-257 melanoma = tested on: UACC-257 melanoma
ACHN renal = tested on: ACHN renal
HOP-62 NSCLC = tested on: HOP-62 NSCLC
NCI-H226 lung = tested on: NCI-H226 lung
T-47D breast = tested on: T-47D breast
SN12C renal = tested on: SN12C renal
NCI/ADR-RES ovarian = tested on: NCI/ADR-RES ovarian
HCT-15 colon = tested on: HCT-15 colon
DU-145 prostate = tested on: DU-145 prostate

CCCCCCCCCCCCCCCCOC(=O)c1c(C)[nH]c(/C=C2\N=C(c3ccc[nH]3)C=C2OC)c1C
GI50 (HCT-116 colon): 43 nM
TGI (HCT-116 colon): 7330 nM
GI50 (BT-549 breast): 2230 nM
TGI (BT-549 breast): 20400 nM
GI50 (HOP-92 NSCLC): 200 nM
TGI (HOP-92 NSCLC): 830 nM
GI50 (CCRF-CEM leukemia): 32900 nM
TGI (CCRF-CEM leukemia): > 100000 nM
GI50 (RXF 393 renal): 1410 nM
TGI (RXF 393 renal): 6460 nM
GI50 (OVCAR-4 ovarian): 2710 nM
TGI (OVCAR-4 ovarian): 53600 nM
GI50 (HL-60(TB) leukemia): 151 nM
TGI (HL-60(TB) leukemia): > 100000 nM
GI50 (SF-295 CNS): 2700 nM
TGI (SF-295 CNS): 11000 nM
GI50 (TK-10 renal): 759 nM
TGI (TK-10 renal): 3360 nM
GI50 (LOX IMVI melanoma): 34.6 nM
TGI (LOX IMVI melanoma): 144 nM
GI50 (MCF7 breast): 68.6 nM
TGI (MCF7 breast): > 100000 nM
GI50 (SK-MEL-28 melanoma): 3940 nM
TGI (SK-MEL-28 melanoma): > 48700 nM
GI50 (CAKI-1 renal): 212 nM
TGI (CAKI-1 renal): 30500 nM
GI50 (SK-OV-3 ovarian): 2350 nM
TGI (SK-OV-3 ovarian): 5900 nM
GI50 (U251 CNS): 638 nM
TGI (U251 CNS): 7040 nM
GI50 (NCI-H23 lung): 1150 nM
TGI (NCI-H23 lung): 12700 nM
GI50 (HCC-2998 colon): 244 nM
TGI (HCC-2998 colon): 14900 nM
GI50 (SK-MEL-2 melanoma): 249 nM
TGI (SK-MEL-2 melanoma): 1340 nM
GI50 (SW-620 colon): 182 nM
TGI (SW-620 colon): > 100000 nM
GI50 (786-0 renal): 1070 nM
TGI (786-0 renal): 14400 nM
GI50 (SK-MEL-5 melanoma): 119 nM
TGI (SK-MEL-5 melanoma): 703 nM
GI50 (HT29 colon): 83 nM
TGI (HT29 colon): > 100000 nM
GI50 (M14 melanoma): 152 nM
TGI (M14 melanoma): 452 nM
GI50 (OVCAR-5 ovarian): 718 nM
GI50 (SF-539 CNS): 2300 nM
TGI (SF-539 CNS): 13600 nM
GI50 (MDA-MB-435): 307 nM
TGI (MDA-MB-435): > 100000 nM
GI50 (NCI-H522 lung): 5690 nM
TGI (NCI-H522 lung): > 70100 nM
GI50 (COLO 205 colon): 3810 nM
TGI (COLO 205 colon): > 100000 nM
GI50 (OVCAR-8 ovarian): 384 nM
TGI (OVCAR-8 ovarian): 15000 nM
GI50 (SNB-75 CNS): 2470 nM
TGI (SNB-75 CNS): 7170 nM
GI50 (MOLT-4 leukemia): > 100000 nM
TGI (MOLT-4 leukemia): > 100000 nM
GI50 (RPMI-8226 leukemia): 95.8 nM
TGI (RPMI-8226 leukemia): > 100000 nM
GI50 (KM12 colon): 102 nM
TGI (KM12 colon): > 100000 nM
GI50 (UO-31 renal): 1210 nM
TGI (UO-31 renal): 17100 nM
GI50 (HS 578T breast): 1410 nM
TGI (HS 578T breast): 9380 nM
GI50 (K-562 leukemia): 413 nM
TGI (K-562 leukemia): > 100000 nM
GI50 (A549 NSCLC): 239 nM
TGI (A549 NSCLC): 12800 nM
GI50 (SNB-19 CNS): 11800 nM
TGI (SNB-19 CNS): 80300 nM
GI50 (MALME-3M melanoma): 3670 nM
TGI (MALME-3M melanoma): 29800 nM
GI50 (SR leukemia): 1540 nM
TGI (SR leukemia): > 100000 nM
GI50 (NCI-H460 lung): 42.9 nM
TGI (NCI-H460 lung): > 100000 nM
GI50 (OVCAR-3 ovarian): 1670 nM
TGI (OVCAR-3 ovarian): 6910 nM
GI50 (SF-268 CNS): 1990 nM
TGI (SF-268 CNS): 19600 nM
GI50 (UACC-62 melanoma): 235 nM
TGI (UACC-62 melanoma): 620 nM
GI50 (PC-3 prostate): 162 nM
TGI (PC-3 prostate): > 100000 nM
GI50 (A498 renal): 1510 nM
TGI (A498 renal): 5470 nM
GI50 (MDA-MB-231 breast): 789 nM
TGI (MDA-MB-231 breast): 10100 nM
GI50 (IGROV1 ovarian): 1060 nM
TGI (IGROV1 ovarian): 9400 nM
GI50 (UACC-257 melanoma): 9690 nM
TGI (UACC-257 melanoma): > 100000 nM
GI50 (ACHN renal): 1650 nM
TGI (ACHN renal): 14900 nM
GI50 (HOP-62 NSCLC): 2890 nM
TGI (HOP-62 NSCLC): 12800 nM
GI50 (NCI-H226 lung): 4540 nM
TGI (NCI-H226 lung): 15200 nM
GI50 (T-47D breast): 433 nM
TGI (T-47D breast): 12800 nM
GI50 (SN12C renal): 1640 nM
TGI (SN12C renal): 23700 nM
GI50 (NCI/ADR-RES ovarian): 735 nM
TGI (NCI/ADR-RES ovarian): 19900 nM
GI50 (HCT-15 colon): 2210 nM
TGI (HCT-15 colon): > 100000 nM
GI50 (DU-145 prostate): 406 nM
TGI (DU-145 prostate): > 56500 nM
